# Measured values as given in patent publication US7666660B2, “Method for mixing inside a capillary and devices for achieving same” (priority 2005, dated 2010).
# Biological target: β-galactosidase (β-Gal) (Escherichia coli, UniProt P00722)
# Details: substrate of β-galactosidase, components mixed in a vial, 35 min incubation, 25° C., pH 7.2 phosphate buffer with 1 mM MgCl2, Michaelis-Menten equation
# Method: β-galactosidase (β-Gal) (isolated from E. coli), fluorescein mono-β-D-galactopyranoside (FMG), and fluorescein sodium salt were purchased from Sigma-Aldrich (Oakville, ON, Canada). All other chemicals were from Sigma-Aldrich, Caledon, or BDH (Toronto, ON, Canada), and were of analytical grade. Stock solutions of 4.4 mM FMG and 5 nM β-Gal were prepared with 10 mM phosphate (pH 7.2) buffer containing 1 mM MgCl2, and stored at −80° C. The 10 nM phosphate (pH 7.2) buffer containing 1 mM MgCl2 was also used for enzyme reactions, and for capillary electrophoresis as a run buffer. […]
# All capillary electrophoresis (CE) experiments were carried out with a P/ACE MDQ instrument equipped with a laser-induced fluorescent (LIF) detector (Beckman-Coulter; Fullerton Calif.). Fluorescence was excited by a 488-nm line of an argon-ion laser (5 mW). […]
# 6 μL of 1 μM FMG, 3 μL of 1 nM β-Gal, and 9 μL of 10 mM phosphate buffer containing 1 mM MgCl2 were mixed in a 200 μL reservoir. […] The reaction mixture was directly used for quantifying the amount of the product by CE. […] The identification and quantitative assay of products were preformed by the addition of fluorescein (internal reference) to the reaction mixture.
# The Km and Kcat values were determined using an approach previously described by Berezovski et al. (Electrophoresis, 23:3398-403, 2002). […]
# Chain of β-galactosidase (β-Gal) (P00722 2-1024): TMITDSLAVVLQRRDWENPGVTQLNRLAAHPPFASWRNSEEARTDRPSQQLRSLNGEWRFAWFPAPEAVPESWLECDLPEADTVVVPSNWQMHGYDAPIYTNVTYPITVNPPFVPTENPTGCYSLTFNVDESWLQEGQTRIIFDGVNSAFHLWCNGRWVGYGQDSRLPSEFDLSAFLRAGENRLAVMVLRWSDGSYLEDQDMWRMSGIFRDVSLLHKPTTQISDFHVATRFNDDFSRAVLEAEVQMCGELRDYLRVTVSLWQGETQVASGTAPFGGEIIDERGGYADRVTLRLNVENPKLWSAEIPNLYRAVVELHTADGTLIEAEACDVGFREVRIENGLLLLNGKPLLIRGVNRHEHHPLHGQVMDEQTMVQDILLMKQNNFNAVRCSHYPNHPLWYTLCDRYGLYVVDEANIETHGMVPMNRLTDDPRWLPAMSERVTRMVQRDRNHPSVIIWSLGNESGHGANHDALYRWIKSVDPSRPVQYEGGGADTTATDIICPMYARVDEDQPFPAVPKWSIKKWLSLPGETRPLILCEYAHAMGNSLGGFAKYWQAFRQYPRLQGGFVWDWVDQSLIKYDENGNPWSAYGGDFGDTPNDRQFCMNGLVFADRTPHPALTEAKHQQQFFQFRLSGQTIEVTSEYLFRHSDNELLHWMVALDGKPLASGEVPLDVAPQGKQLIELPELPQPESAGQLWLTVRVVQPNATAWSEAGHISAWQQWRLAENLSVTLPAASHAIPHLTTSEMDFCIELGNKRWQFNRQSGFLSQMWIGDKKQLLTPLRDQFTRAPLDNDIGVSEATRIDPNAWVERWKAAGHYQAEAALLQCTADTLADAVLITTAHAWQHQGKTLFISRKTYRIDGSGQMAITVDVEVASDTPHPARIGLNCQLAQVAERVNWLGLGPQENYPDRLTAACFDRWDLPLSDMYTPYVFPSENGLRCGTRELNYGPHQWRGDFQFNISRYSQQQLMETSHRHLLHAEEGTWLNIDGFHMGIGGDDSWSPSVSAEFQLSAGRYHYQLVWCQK
smiles,measurement,setting,value
"O=C1OC2(c3ccc(O)cc3Oc3cc(O[C@@H]4O[C@H](CO)[C@H](O)[C@H](O)[C@H]4O)ccc32)c2ccccc21 (stereo partly drawn) [fluorescein-mono-β-D-galactopyranoside, fluorescein mono-β-D-galactopyranoside]",Km,"read-out: Michaelis constant, Km",0.9 µM
same,"catalytic rate constant, kcat",,0.6 s⁻¹
